# Test system: HT-1080 cells
# Test: HT-1080 cell viability assay (ferroptosis induced by RSL3, Cell Titer-Glo)
# Assay type: cell-based
# Details: Homo sapiens, HT-1080, 20 h, ferroptosis inducer RSL3, 20 hours, ferroptosis inhibitory activity, Table 2
# Description: Example 2. Determination of EC50 Values in HT-1080 Cell Viability Assay
# HT-1080 (ATCC, CCL-121) cells (6000 in 100 μl) were seeded in 96-well plates (Corning) and cultured in a 37° C. incubator with a humidified atmosphere of 5% CO2 for overnight. Cells were then treated with ferroptosis inducer RSL3 (TargetMol) and a 3-fold, 10-point serial dilution series of compounds with 1.1 μM as the highest concentration, for 20 hours. Cell viability was assessed using the Cell Titer-Glo Kit (Promega). The luminescence intensity was measured with a microplate reader (Envision, PerkinElmer), and cell viability was calculated by normalizing the data to untreated controls. The EC50 values of the compounds (e.g., Compounds 1-573 and 574-661) were calculated in GraphPad Prism (GraphPad Software, Inc., San Diego, CA, USA). The curves were fitted using a non-linear regression model with a sigmoidal dose response.
row,SMILES,EC50 [nM]
1,"CC1(C)CCC(c2ccc(NC3CCC(CCN)CC3)cc2)CC1 (stereo not drawn) [Compound 118, N-(4-(2-aminoethyl)cyclohexyl)-4-(4,4-dimethylcyclohexyl)aniline]",0.1 to 100
2,"CC1(C)Cc2ccc(NC3CCC(N)CC3)cc2C1 (stereo not drawn) [Compound 324, N-(2,2-dimethyl-2,3-dihydro-1H-inden-5-yl)cyclohexane-1,4-diamine]",0.1 to 100
3,"CC(C)(C)c1ccc(NC2CCC(N)C(O)C2)cc1 (stereo not drawn) [Compound 327, 2-amino-5-((4-(tert-butyl)phenyl)amino)cyclohexan-1-ol]",100 to 1000
4,CC1CN(c2ccc3cc(NC4CC5(CC(N)C5)C4)ccc3n2)CC(C)N1C(=O)C(F)(F)F (stereo not drawn) [Compound 566],0.1 to 100
5,"Cc1nc(N2CCC3(CC2)COC3)ccc1NC1CC2(CC(N)C2)C1 (stereo not drawn) [Compound 530, 2-N-(2-methyl-6-{2-oxa-7-azaspiro[3.5]nonan-7-yl}pyridin-3-yl)spiro[3.3]heptane-2,6-diamine]",1000 to 10000
6,"CC1(C)CCC(c2ccc(NC3CC(O)C3)cc2)CC1 (single isomer, unassigned) [Compound 228A, 3-((4-(4,4-dimethylcyclohexyl)phenyl)amino)cyclobutan-1-ol]",0.1 to 100
7,CC1(C)CCC(c2ccc(NC3CCC(CCNC(N)=O)CC3)cc2)CC1 (stereo not drawn) [Compound 243],0.1 to 100
8,"CC(C)C1CCN(c2ncc(NC[C@H]3CC[C@H](NC(N)=O)CC3)cn2)CC1 [Compound 409, 1-((1r,4r)-4-(((2-(4-isopropylpiperidin-1-yl)pyrimidin-5-yl)amino)methyl)cyclohexyl)urea]",0.1 to 100
9,"Cc1cc(N2CCC(C(F)(F)F)CC2)ccc1NCC[C@H]1CC[C@H](N)CC1 [Compound 383, N-(2-((1r,4r)-4-aminocyclohexyl)ethyl)-2-methyl-4-(4-(trifluoromethyl)piperidin-1-yl)aniline]",0.1 to 100
10,"CC1(C)CN(c2ncc(NC3CCC(N)CC3)cn2)C1 (stereo not drawn) [Compound 33A, N1-(2-(3,3-dimethylazetidin-1-yl)pyrimidin-5-yl)cyclohexane-1,4-diamine]",1000 to 10000
11,CC1(C)CCC(c2ccc(NC3CCC(O)C3)cc2)CC1 (stereo not drawn) [Compound 151],0.1 to 100
12,"CC(C)C1CCN(c2ncc(NC[C@H]3CC[C@H](C(N)=O)CC3)cn2)CC1 [Compound 423, (1r,4r)-4-(((2-(4-isopropylpiperidin-1-yl)pyrimidin-5-yl)amino)methyl)cyclohexane-1-carboxamide]",0.1 to 100
13,"Cc1nc(N2CC3CC(C2)O3)ccc1NC1CC2(CC(N)C2)C1 (stereo not drawn) [Compound 524, N2-(6-(6-oxa-3-azabicyclo[3.1.1]heptan-3-yl)-2-methylpyridin-3-yl)spiro[3.3]heptane-2,6-diamine]",100 to 1000
14,"O=C(NO)C1CC2(CC(Nc3cnc(N4CCC(C(F)(F)F)CC4)nc3)C2)C1 (stereo not drawn) [Compound 428, N-hydroxy-6-((2-(4-(trifluoromethyl)piperidin-1-yl)pyrimidin-5-yl)amino)spiro[3.3]heptane-2-carboxamide]",0.1 to 100
15,"CNC(=O)C1CCC(Nc2ccc(N3CCC(C(F)(F)F)CC3)cc2)CC1 (stereo not drawn) [Compound 365, N-methyl-4-((4-(4-(trifluoromethyl)piperidin-1-yl)phenyl)amino)cyclohexane-1-carboxamide]",0.1 to 100
16,"Cc1nc(N2C3COCC2C3)ccc1NC1CC2(CC(N)C2)C1 (stereo not drawn) [Compound 523, N2-(6-(3-oxa-6-azabicyclo[3.1.1]heptan-6-yl)-2-methylpyridin-3-yl)spiro[3.3]heptane-2,6-diamine]",1000 to 10000
17,"CC1CN(c2ccc(NC[C@H]3CC[C@H](N)CC3)c(C(F)(F)F)c2)CC(C)O1 (stereo partly drawn) [Compound 466, N-(((1r,4r)-4-aminocyclohexyl)methyl)-4-(2,6-dimethylmorpholino)-2-(trifluoromethyl)aniline]",100 to 1000
18,"CCN(CCCOC)c1ccc(NC[C@H]2CC[C@H](N)CC2)cc1 [Compound 385, N1-(((1r,4r)-4-aminocyclohexyl)methyl)-N4-ethyl-N4-(3-methoxypropyl) benzene-1,4-diamine]",100 to 1000

# The next lines start with the values.
row,EC50 [nM],SMILES
1,0.1 to 100,"CC1(C)CCC(c2ccc(NC3CCC(N)C3)cc2)CC1 (single isomer, unassigned) [Compound 121A, N1-(4-(4,4-dimethylcyclohexyl)phenyl)cyclopentane-1,3-diamine]"
2,100 to 1000,"O=C1NC[C@H](C(=O)NC2CCC(Nc3ccc(C4CCCCC4)cc3)CC2)N1 (stereo partly drawn) [Compound 111, (R)—N-(4-((4-cyclohexylphenyl)amino)cyclohexyl)-2-oxoimidazolidine-4-carboxamide]"
3,0.1 to 100,"NC1CCC(Nc2ccc(C3CCCCC3)cc2)CC1 (stereo not drawn) [Compound 122, N1-(4-cyclohexylphenyl)cyclohexane-1,4-diamine]"
4,0.1 to 100,"CCN1CCC(Nc2ccc(N3CCC(C(F)(F)F)CC3)cc2)CC1 [Compound 5, 1-ethyl-N-(4-(4-(trifluoromethyl)piperidin-1-yl)phenyl)piperidin-4-amine]"
5,0.1 to 100,"CC1(C)CCC(c2ccc(NC3CCC(CNC(=O)C4CNC(=O)C4)CC3)cc2)CC1 (single isomer, unassigned) [Compound 106A]"
6,0.1 to 100,"Cc1cc(N2CCC(C(F)(F)F)CC2)c(F)cc1NC1CCC(C(N)=O)CC1 (stereo not drawn) [Compound 435, 4-((5-fluoro-2-methyl-4-(4-(trifluoromethyl)piperidin-1-yl)phenyl)amino)cyclohexane-1-carboxamide]"
7,0.1 to 100,"CC1CC(Nc2ccc(C(C)(C)C)cc2)CCC1N (stereo not drawn) [Compound 250A, N1-(4-(tert-butyl)phenyl)-3-methylcyclohexane-1,4-diamine]"
8,0.1 to 100,"NC1CCC(Nc2cccc3ccccc23)CC1 (stereo not drawn) [Compound 238, N1-(naphthalen-1-yl)cyclohexane-1,4-diamine]"
9,0.1 to 100,"Cc1cc(N2CC(C)OC(C)C2)c(C)cc1NC[C@H]1CC[C@H](N)CC1 (stereo partly drawn) [Compound 453, N-(((1r,4r)-4-aminocyclohexyl)methyl)-4-(2,6-dimethylmorpholino)-2,5-dimethylaniline]"
10,1000 to 10000,"CC(C)(C)c1ccc(NCCN2CCOCC2)cc1 [Compound 206, U4-(tert-butyl)-N-(2-morpholinoethyl)aniline]"
11,0.1 to 100,"CCC1CCN(c2ncc(NC3CCC(N)CC3)cn2)CC1 (stereo not drawn) [Compound 43, N1-(2-(4-ethylpiperidin-1-yl)pyrimidin-5-yl)cyclohexane-1,4-diamine]"
12,0.1 to 100,"CCC1CCN(c2ccc(NC[C@H]3CC[C@H](N)CC3)c(C)c2)CC1 [Compound 389, N-(((1r,4r)-4-aminocyclohexyl)methyl)-4-(4-ethylpiperidin-1-yl)-2-methylaniline]"
13,1000 to 10000,"Cc1cc(C)c(NC2CCC(CN)CC2)c(C)c1 (stereo not drawn) [Compound 210, N-[4-(aminomethyl)cyclohexyl]-2,4,6-trimethylaniline]"
14,0.1 to 100,"NC1CCC(Nc2ccc3ccccc3c2)CC1 (stereo not drawn) [Compound 221, N1-(naphthalen-2-yl)cyclohexane-1,4-diamine]"
15,0.1 to 100,"FC(F)(F)C1CCN(c2ccc(NC3CCOCC3)cc2)CC1 [Compound 17, N-(4-(4-(trifluoromethyl)piperidin-1-yl)phenyl)tetrahydro-2H-pyran-4-amine]"
16,0.1 to 100,"N[C@H]1CC[C@@H](Nc2ccc(N3CCC(C(F)(F)F)CC3)cc2)CC1 [Compound 355, (1s,4s)-N1-(4-(4-(trifluoromethyl)piperidin-1-yl)phenyl)cyclohexane-1,4-diamine]"
17,100 to 1000,"CC(C)c1ccc(NC2CCC(N)CC2)cc1 (stereo not drawn) [Compound 127, N1-(4-isopropylphenyl)cyclohexane-1,4-diamine]"
18,0.1 to 100,Cc1cc(NC2CC(C(=O)NN)C2)ccc1N1CCC(C)CC1 (stereo not drawn) [Compound 489]
19,0.1 to 100,"CC1(C)CCC(c2ccc(NC3CCC(N)CC3)cc2)CC1 (stereo not drawn) [Compound 74, N1-(4-(4,4-dimethylcyclohexyl)phenyl)cyclohexane-1,4-diamine]"
20,100 to 1000,"CCc1ccc(NC2CCC(N)CC2)cc1C (stereo not drawn) [Compound 304, N1-(4-ethyl-3-methylphenyl)cyclohexane-1,4-diamine]"
21,100 to 1000,"CC1(C)CCC(c2ccc(NCCN)cc2)CC1 [Compound 176, N1-(4-(4,4-dimethylcyclohexyl)phenyl)ethane-1,2-diamine]"
22,100 to 1000,"Cc1ccc(NC2CCC(CN)CC2)cc1C (stereo not drawn) [Compound 282, N-(4-(aminomethyl)cyclohexyl)-3,4-dimethylaniline]"

# Same assay, conditions: Homo sapiens, HT-1080, 20 h, ferroptosis inducer RSL3, 20 hours, ferroptosis inhibitory activity, Table 3
row,EC50 [nM],SMILES
1,0.1 to 100,"Cc1nc(N2CC(C)OC(C(F)(F)F)C2)ccc1NC[C@H]1CC[C@@H](N)CC1 (stereo partly drawn) [Compound 598, N-(((1s,4s)-4-aminocyclohexyl)methyl)-2-methyl-6-(2-methyl-6-(trifluoromethyl)morpholino)pyridin-3-amine]"
2,0.1 to 100,"NC1CC(Nc2ccc3cc(N4CCN(CC(F)(F)F)CC4)ccc3c2)C1 (stereo not drawn) [Compound 593, N^1-(6-(4-(2,2,2-trifluoroethyl)piperazin-1-yl)naphthalen-2-yl)cyclobutane-1,3-diamine]"

# Same assay, conditions: Homo sapiens, ferroptosis inducer RSL3, 20 hours, ferroptosis inhibitory activity, Table 2
row,SMILES,EC50 [nM]
1,"CC(C)C1CCN(c2ncc(NC3CCC(CN)CC3)cn2)CC1 (stereo not drawn) [Compound 24A, N-(4-(aminomethyl)cyclohexyl)-2-(4-isopropylpiperidin-1-yl)pyrimidin-5-amine]",0.1 to 100

# Same assay, conditions: ferroptosis inducer RSL3, 20 hours, ferroptosis inhibitory activity, Table 2
row,EC50 [nM],SMILES
1,0.1 to 100,"CC1(N)CCC(Nc2ccc3c(c2)CCCC3)CC1 (stereo not drawn) [Compound 285, 1-methyl-N4-(5,6,7,8-tetrahydronaphthalen-2-yl)cyclohexane-1,4-diamine]"

# Same assay, conditions: ferroptosis inducer RSL3, 20 hours, ferroptosis inhibitory activity, Table 3
row,EC50 [nM],SMILES
1,0.1 to 100,"CC1CN(c2ccc3cc(NC4CC(N)C4)ccc3c2)CCO1 (stereo not drawn) [Compound 630, N^1-(6-(2-methylmorpholino)naphthalen-2-yl)cyclobutane-1,3-diamine]"
